Results published in patent US20110039762A1, “TARGETED ANTIMICROBIAL MOIETIES” (C3 JIAN, INC., priority 2009, published 2011).
Entries after “also recorded” stand apart in the source; their conditions may differ.

Tests used:
[1] = system: C. jeikeium; test: Kill or inhibit growth/proliferation; morphology, biofilm and growth disruption (Tables 5, 6); type: cell-based, Corynebacterium jeikeium; parameters: key: A: Peptide aggregates; B: Less hyphal formation; Clumps; Diffuse clumps and small polyps; F: Diffuse growth; H: Thin; I: Growth inhibition; Microcolony formation; Rippled; Small polyps; Thick; W: Halo formation on top, microlonies on bottom; further: test concentration or dose not given here
[2] = system: M. luteus; test: as above; type: cell-based, Micrococcus luteus; parameters: key: A: Peptide aggregates; B: Less hyphal formation; Clumps; Diffuse clumps and small polyps; F: Diffuse growth; H: Thin; I: Growth inhibition; Microcolony formation; Rippled; Small polyps; Thick; W: Halo formation on top, microlonies on bottom; further: test concentration or dose not given here
[3] = system: S. epidermidis; test: as above; type: cell-based, Staphylococcus epidermidis; parameters: key: A: Peptide aggregates; B: Less hyphal formation; Clumps; Diffuse clumps and small polyps; F: Diffuse growth; H: Thin; I: Growth inhibition; Microcolony formation; Rippled; Small polyps; Thick; W: Halo formation on top, microlonies on bottom; further: test concentration or dose not given here
[4] = system: MRSA; test: as above; type: cell-based, Methicillin-resistant Staphylococcus aureus; parameters: key: A: Peptide aggregates; B: Less hyphal formation; Clumps; Diffuse clumps and small polyps; F: Diffuse growth; H: Thin; I: Growth inhibition; Microcolony formation; Rippled; Small polyps; Thick; W: Halo formation on top, microlonies on bottom; further: test concentration or dose not given here
[5] = system: microorganisms (e.g., bacteria, yeasts, fungi); test: Targeting peptide binding to target microorganisms (Table 3); conditions: preferably 1x PBS
[6] = system: microorganisms; test: Peptides having multiple activities (targeting/binding, antimicrobial, growth or phenotype altering)
Description: In certain embodiments, peptides described herein can have multiple activities. Thus for example, a peptide can have both binding/targeting activity and antimicrobial activity. Such peptides can be used, e.g., in a chimeric construct, for any or all of these properties. Thus, for example, a peptide designated “B” in Table 8 can be used as a targeting peptide. If it is also designated G or M it can also be used for antimicrobial activity.

[7] = system: B. subtilis; test: Kill or inhibit growth/proliferation; morphology, biofilm and growth disruption (Tables 5, 6); type: cell-based, Bacillus subtilis; parameters: key: A: Peptide aggregates; B: Less hyphal formation; Clumps; Diffuse clumps and small polyps; F: Diffuse growth; H: Thin; I: Growth inhibition; Microcolony formation; Rippled; Small polyps; Thick; W: Halo formation on top, microlonies on bottom; further: test concentration or dose not given here
[8] = system: S. pneumoniae; test: as above; type: cell-based, Streptococcus pneumoniae; parameters: key: A: Peptide aggregates; B: Less hyphal formation; Clumps; Diffuse clumps and small polyps; F: Diffuse growth; H: Thin; I: Growth inhibition; Microcolony formation; Rippled; Small polyps; Thick; W: Halo formation on top, microlonies on bottom; further: test concentration or dose not given here
[9] = system: C. jejuni; test: as above; type: cell-based, Campylobacter jejuni; parameters: key: A: Peptide aggregates; B: Less hyphal formation; Clumps; Diffuse clumps and small polyps; F: Diffuse growth; H: Thin; I: Growth inhibition; Microcolony formation; Rippled; Small polyps; Thick; W: Halo formation on top, microlonies on bottom; further: test concentration or dose not given here
[10] = microorganism the targeting peptide binds, binding in aqueous buffers varied by peptide solubility
[11] = microorganism(s) the targeting peptide binds, peptide binding conducted in aqueous buffers varied by peptide solubility

Substance | Organism, effect [1] | Organism, effect [2] | Organism, effect [3] | Organism, effect [4] | Target(s) [5, 10] | Activities [6] | Organism, effect [7] | Target(s) [5, 11] | Organism, effect [8] | Organism, effect [9]
LIQKGLNQTFIVVIRLNNFIKKS [PF-013] | C. jeikeium (D) | M. luteus (D) | S. epidermidis (C) | MRSA (R) | M. luteus and P. mirabilis and E. coli and P. aeruginosa and MRSA and S. pneumoniae and C. jeikeium and C. jejuni | G B | – | – | – | –
PF-303 (EYPWSWISEPWPWDKSFYK; Peptide with targeting and/or antimicrobial activity) | – | – | – | – | – | – | B. subtilis (C) | – | – | –
PF-569: peptide having multiple activities (chain 1 KSKISEYTEKEFLEFVEDIYTNNK; chain 2 KSKISEYTEKEFLEFVEDIYTNNK; Peptide with targeting and/or antimicrobial activity) | – | – | – | – | – | G B | B. subtilis (D) | M. luteus; also recorded: P. mirabilis; also recorded: S. pneumoniae; also recorded: E. faecalis; also recorded: C. jeikeium | – | –
PF-010: peptide having multiple activities (chain 1 MDIDVNKLLQAFVYFKSFEKLRHNNS; chain 2 MDIDVNKLLQAFVYFKSFEKLRHNNS; Peptide with targeting and/or antimicrobial activity) | C. jeikeium (A) | M. luteus (A) | S. epidermidis (S) | MRSA (R) | S. epidermidis; also recorded: M. luteus; also recorded: E. coli; also recorded: C. albicans | G B | – | – | – | –
PF-574 (LVKSGKLESPYEHSEHLTLSQEKGLE; Peptide with targeting and/or antimicrobial activity) | – | – | – | – | – | – | B. subtilis (D) | – | – | –
PF-043: peptide having multiple activities (chain 1 MIKNETAYQMNELLVIRSAYAK; chain 2 MIKNETAYQMNELLVIRSAYAK; Peptide with targeting and/or antimicrobial activity) | C. jeikeium (A) | M. luteus (C) | S. epidermidis (D) | MRSA (R) | M. luteus; also recorded: C. jejuni | G B | – | – | – | –
PF-052: peptide having multiple activities (chain 1 QELINEAVNLLVKSK; chain 2 QELINEAVNLLVKSK; Peptide with targeting and/or antimicrobial activity) | C. jeikeium (D) | M. luteus (A) | S. epidermidis (S) | MRSA (R) | S. epidermidis and M. luteus and E. coli and MRSA and E. faecalis and C. jeikeium and C. jejuni | G B | – | – | – | –
PF-567: peptide having multiple activities (chain 1 QQRVKAVDASLSQVSTQVSGAVASA; chain 2 QQRVKAVDASLSQVSTQVSGAVASA; Peptide with targeting and/or antimicrobial activity) | C. jeikeium (C) | M. luteus (C) | – | MRSA (D) | – | G B | – | S. epidermidis and P. aeruginosa and C. albicans and MRSA and S. pneumoniae and C. jeikeium | S. pneumoniae (D) | C. jejuni (D)
PF-070: peptide having multiple activities (SMVKSEIVDLLNGEDNDD; Peptide with targeting and/or antimicrobial activity) | – | – | – | – | S. epidermidis; also recorded: C. jejuni | G B | B. subtilis (D) | – | – | –
PF-025: peptide having multiple activities (chain 1 LLIIFRLWLELKWKNKK; chain 2 LLIIFRLWLELKWKNKK; Peptide with targeting and/or antimicrobial activity) | C. jeikeium (A) | M. luteus (A) | S. epidermidis (S) | MRSA (R) | S. epidermidis and M. luteus and P. mirabilis and E. coli and P. aeruginosa and MRSA and E. faecalis and C. jejuni | G B | – | – | – | –
PF-021: peptide having multiple activities (chain 1 FSLNFSKQKYVTVN; chain 2 FSLNFSKQKYVTVN; Peptide with targeting and/or antimicrobial activity) | C. jeikeium (R) | M. luteus (A) | S. epidermidis (A) | MRSA (R) | S. epidermidis; also recorded: M. luteus; also recorded: P. mirabilis; also recorded: E. coli; also recorded: C. albicans; also recorded: E. faecalis; also recorded: C. jeikeium | G B | – | – | – | –
PF-557: peptide having multiple activities (chain 1 AANKAREQAAAEAKRKAEEQAR; chain 2 AANKAREQAAAEAKRKAEEQAR; Peptide with targeting and/or antimicrobial activity) | – | – | – | – | – | G B | B. subtilis (D) | S. pneumoniae | – | –
PF-003: peptide having multiple activities (chain 1 MNNWIKVAQISVTVINEVIDIMKEKQNGGK; chain 2 MNNWIKVAQISVTVINEVIDIMKEKQNGGK; Peptide with targeting and/or antimicrobial activity) | C. jeikeium (A) | M. luteus (A) | S. epidermidis (D) | MRSA (R) | S. epidermidis and M. luteus and P. mirabilis and C. albicans and MRSA and C. jeikeium | G B | – | – | – | –
PF-036: peptide having multiple activities (chain 1 ILNRLSRIVSNEVTSLIYSLK; chain 2 ILNRLSRIVSNEVTSLIYSLK; Peptide with targeting and/or antimicrobial activity) | C. jeikeium (A) | M. luteus (A) | S. epidermidis (S) | MRSA (R) | S. epidermidis and M. luteus and P. mirabilis and E. coli and C. albicans and MRSA and S. pneumoniae and C. jejuni | G B | – | – | – | –
PF-004: peptide having multiple activities (chain 1 ARLSKAIIIAVIVVYHLDVRGLF; chain 2 ARLSKAIIIAVIVVYHLDVRGLF; Peptide with targeting and/or antimicrobial activity) | C. jeikeium (A) | M. luteus (A) | S. epidermidis (A) | MRSA (R) | – | G B | – | – | – | –
PF-571 (SDLLYYPNENREDSPAGVVKEVKE; Peptide with targeting and/or antimicrobial activity) | – | – | – | – | – | – | B. subtilis (D) | – | – | –
